Toxic doses and inconclusive results are not listed.
Tested on: CD2F1 mice, L1210 leukemia ip, survival T/C
Assay: NCI In Vivo Anticancer Drug Screen. Data for tumor model L1210 Leukemia (intraperitoneal) in CD2F1 (CDF1) mice
Conditions: higher = longer survival
Procedure, shortened: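 Transplantable tumor in mice; compound-treated vs vehicle-treated groups. Read-out = treated/control ratio of the measured endpoint.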

[1] = endpoint: mean survival time, dose: 200.0 mg/kg/injection, schedule: Q04DX003 (ip), vehicle: saline
[2] = endpoint: median survival time, dose: 12.5 mg/kg/injection, schedule: Q01DX005 (ip), vehicle: distilled water + Tween-80
[3] = endpoint: median survival time, dose: 25.0 mg/kg/injection, schedule: Q01DX005 (ip), vehicle: distilled water + Tween-80
[4] = endpoint: median survival time, dose: 50.0 mg/kg/injection, schedule: Q01DX005 (ip), vehicle: distilled water + Tween-80
[5] = endpoint: median survival time, dose: 100.0 mg/kg/injection, schedule: Q01DX005 (ip), vehicle: distilled water + Tween-80

With O=C(O)c1ccc(C(=O)O)c(C(=O)O)c1.[NH-]Cc1ccccc1C[NH-].[Pt+2] the T/C (endpoint: mean survival time, dose: 5.0 mg/kg/injection, schedule: Q04DX003 (ip), vehicle: sodium bicarbonate) was 110 % of control, the T/C (endpoint: mean survival time, dose: 10.0 mg/kg/injection, schedule: Q04DX003 (ip), vehicle: sodium bicarbonate) was 110 % of control and the T/C (endpoint: mean survival time, dose: 20.0 mg/kg/injection, schedule: Q04DX003 (ip), vehicle: sodium bicarbonate) was 108 % of control. The T/C (endpoint: mean survival time, dose: 40.0 mg/kg/injection, schedule: Q04DX003 (ip), vehicle: sodium bicarbonate) was 108 % of control and the T/C (endpoint: mean survival time, dose: 80.0 mg/kg/injection, schedule: Q04DX003 (ip), vehicle: sodium bicarbonate) was 96 % of control.

For O=[N+]([O-])c1ccc(N/N=C/c2ccc(CO)cc2)c([N+](=O)[O-])c1, the T/C [1] was 91 % of control and the T/C (endpoint: mean survival time, dose: 400.0 mg/kg/injection, schedule: Q04DX003 (ip), vehicle: saline) was 92 % of control.

With CC(C)=CCCc1ccc2c(c1)C(=O)c1ccccc1C2=O the T/C (endpoint: mean survival time, dose: 100.0 mg/kg/injection, schedule: Q04DX002 (ip), vehicle: saline with Tween-80) was 88 % of control, the T/C (endpoint: mean survival time, dose: 200.0 mg/kg/injection, schedule: Q04DX002 (ip), vehicle: saline with Tween-80) was 92 % of control and the T/C (endpoint: mean survival time, dose: 400.0 mg/kg/injection, schedule: Q04DX002 (ip), vehicle: saline with Tween-80) was 96 % of control.

With CC(=O)NC1CC(n2cnc3c(=O)[nH]c(N)nc32)OC1C(C)O (stereo not drawn) the T/C [2] was 101 % of control, the T/C [3] was 102 % of control and the T/C [4] was 100 % of control. The T/C [5] was 89 % of control.

CSCCC(NC(C)=O)C(=O)O.CSCCC(NC(C)=O)C(=O)O.[NH-]C1CCCCC1[NH-].[Pt+2] (stereo not drawn) was tested, and the T/C (endpoint: median survival time, dose: 3.12 mg/kg/injection, schedule: Q04DX003 (ip), vehicle: saline) was 100 % of control, the T/C (endpoint: median survival time, dose: 6.25 mg/kg/injection, schedule: Q04DX003 (ip), vehicle: saline) was 100 % of control and the T/C (endpoint: median survival time, dose: 12.5 mg/kg/injection, schedule: Q04DX003 (ip), vehicle: saline) was 97 % of control. The T/C (endpoint: median survival time, dose: 25.0 mg/kg/injection, schedule: Q04DX003 (ip), vehicle: saline) was 107 % of control, the T/C (endpoint: median survival time, dose: 50.0 mg/kg/injection, schedule: Q04DX003 (ip), vehicle: saline) was 93 % of control and the T/C (endpoint: median survival time, dose: 100.0 mg/kg/injection, schedule: Q04DX003 (ip), vehicle: saline) was 98 % of control. The T/C (endpoint: median survival time, dose: 200.0 mg/kg/injection, schedule: Q04DX003 (ip), vehicle: saline) was 97 % of control.

NNN1CCN(N)CC1 was tested, and the T/C (endpoint: mean survival time, dose: 100.0 mg/kg/injection, schedule: Q01DX001 (ip), vehicle: saline with Tween-80) was 103 % of control, the T/C (endpoint: mean survival time, dose: 200.0 mg/kg/injection, schedule: Q01DX001 (ip), vehicle: saline with Tween-80) was 111 % of control and the T/C (endpoint: mean survival time, dose: 400.0 mg/kg/injection, schedule: Q01DX001 (ip), vehicle: saline with Tween-80) was 91 % of control.

For CCCCCCCCCCCC(=O)OCC1OC2C(Oc3nc(=N)ccn32)C1OC(=O)CCCCCCCCCCC (stereo not drawn), the T/C (endpoint: mean survival time, dose: 12.5 mg/kg/injection, schedule: Q01DX009 (ip), vehicle: water) was 168 % of control, the T/C (endpoint: mean survival time, dose: 25.0 mg/kg/injection, schedule: Q01DX009 (ip), vehicle: water) was 247 % of control and the T/C (endpoint: mean survival time, dose: 50.0 mg/kg/injection, schedule: Q01DX009 (ip), vehicle: water) was 187 % of control. The T/C (endpoint: mean survival time, dose: 100.0 mg/kg/injection, schedule: Q01DX009 (ip), vehicle: water) was 98 % of control.

CC(C)(C(=O)O)C(=O)O was tested, and the T/C (endpoint: mean survival time, dose: 50.0 mg/kg/injection, schedule: Q04DX003 (ip), vehicle: saline) was 97 % of control, the T/C (endpoint: mean survival time, dose: 100.0 mg/kg/injection, schedule: Q04DX003 (ip), vehicle: saline) was 94 % of control and the T/C [1] was 100 % of control.

C[As](C)SCC1OC(n2ccc(=O)[nH]c2=O)CC1O (stereo not drawn) was tested, and the T/C [2] was 97 % of control, the T/C [3] was 104 % of control and the T/C [4] was 106 % of control. The T/C [5] was 109 % of control.

With O=C(Nc1ccc2c(c1)Cc1cccc(NC(=O)C(Cl)Cl)c1-2)C(Cl)Cl the T/C (endpoint: mean survival time, dose: 12.5 mg/kg/injection, schedule: Q01DX009 (ip), vehicle: Klucel (hydroxypropylcellulose) (HPC)) was 90 % of control, the T/C (endpoint: mean survival time, dose: 25.0 mg/kg/injection, schedule: Q01DX009 (ip), vehicle: Klucel (hydroxypropylcellulose) (HPC)) was 93 % of control and the T/C (endpoint: mean survival time, dose: 50.0 mg/kg/injection, schedule: Q01DX009 (ip), vehicle: Klucel (hydroxypropylcellulose) (HPC)) was 87 % of control.

Cc1ccc(O)c2ncccc12 was tested, and the T/C (endpoint: mean survival time, dose: 100.0 mg/kg/injection, schedule: Q01DX009 (ip), vehicle: saline with Tween-80) was 114 % of control, the T/C (endpoint: mean survival time, dose: 200.0 mg/kg/injection, schedule: Q01DX009 (ip), vehicle: saline with Tween-80) was 97 % of control and the T/C (endpoint: mean survival time, dose: 400.0 mg/kg/injection, schedule: Q01DX009 (ip), vehicle: saline with Tween-80) was 103 % of control.

For COC(=O)Nc1cn2cc(C(=O)c3cccs3)ccc2n1, the T/C (endpoint: median survival time, dose: 6.25 mg/kg/injection, schedule: Q01DX009 (ip), vehicle: Klucel (hydroxypropylcellulose) (HPC)) was 104 % of control, the T/C (endpoint: median survival time, dose: 12.5 mg/kg/injection, schedule: Q01DX009 (ip), vehicle: Klucel (hydroxypropylcellulose) (HPC)) was 112 % of control and the T/C (endpoint: median survival time, dose: 25.0 mg/kg/injection, schedule: Q01DX009 (ip), vehicle: Klucel (hydroxypropylcellulose) (HPC)) was 119 % of control. For the same molecule, the T/C (endpoint: median survival time, dose: 50.0 mg/kg/injection, schedule: Q01DX009 (ip), vehicle: Klucel (hydroxypropylcellulose) (HPC)) was 124 % of control.

Cc1cc(=O)[nH]c(O)c1C#N was tested, and the T/C (endpoint: mean survival time, dose: 100.0 mg/kg/injection, schedule: Q04DX003 (ip), vehicle: saline with Tween-80) was 96 % of control, the T/C (endpoint: mean survival time, dose: 200.0 mg/kg/injection, schedule: Q04DX003 (ip), vehicle: saline with Tween-80) was 94 % of control and the T/C (endpoint: mean survival time, dose: 400.0 mg/kg/injection, schedule: Q04DX003 (ip), vehicle: saline with Tween-80) was 94 % of control.

From PubChem BioAssay AID256 (DTP/NCI, 2004)
